Assay results as given in patent publication US10669269B2, “Substituted N-(1H-indazol-4-yl)imidazo[1,2-a]pyridine-3-carboxamide compounds as type III receptor tyrosine kinase inhibitors” (ARRAY BIOPHARMA INC., priority 2010, dated 2020).

Legend:
[1] = target: T1, PDGFR beta (Homo sapiens, UniProt P09619); test: Phospho PDGFR Cell Assay, sandwich ELISA (Example A); type: cell-based; settings: averaged IC50, PDGFR beta phosphorylation in HS27 human fibroblast cell line, PDGF-BB stimulation 5 minutes
T1 construct: endogenous in cells; host or cells: HS27 human fibroblast cell line
T1 sequence (P09619 33-1106): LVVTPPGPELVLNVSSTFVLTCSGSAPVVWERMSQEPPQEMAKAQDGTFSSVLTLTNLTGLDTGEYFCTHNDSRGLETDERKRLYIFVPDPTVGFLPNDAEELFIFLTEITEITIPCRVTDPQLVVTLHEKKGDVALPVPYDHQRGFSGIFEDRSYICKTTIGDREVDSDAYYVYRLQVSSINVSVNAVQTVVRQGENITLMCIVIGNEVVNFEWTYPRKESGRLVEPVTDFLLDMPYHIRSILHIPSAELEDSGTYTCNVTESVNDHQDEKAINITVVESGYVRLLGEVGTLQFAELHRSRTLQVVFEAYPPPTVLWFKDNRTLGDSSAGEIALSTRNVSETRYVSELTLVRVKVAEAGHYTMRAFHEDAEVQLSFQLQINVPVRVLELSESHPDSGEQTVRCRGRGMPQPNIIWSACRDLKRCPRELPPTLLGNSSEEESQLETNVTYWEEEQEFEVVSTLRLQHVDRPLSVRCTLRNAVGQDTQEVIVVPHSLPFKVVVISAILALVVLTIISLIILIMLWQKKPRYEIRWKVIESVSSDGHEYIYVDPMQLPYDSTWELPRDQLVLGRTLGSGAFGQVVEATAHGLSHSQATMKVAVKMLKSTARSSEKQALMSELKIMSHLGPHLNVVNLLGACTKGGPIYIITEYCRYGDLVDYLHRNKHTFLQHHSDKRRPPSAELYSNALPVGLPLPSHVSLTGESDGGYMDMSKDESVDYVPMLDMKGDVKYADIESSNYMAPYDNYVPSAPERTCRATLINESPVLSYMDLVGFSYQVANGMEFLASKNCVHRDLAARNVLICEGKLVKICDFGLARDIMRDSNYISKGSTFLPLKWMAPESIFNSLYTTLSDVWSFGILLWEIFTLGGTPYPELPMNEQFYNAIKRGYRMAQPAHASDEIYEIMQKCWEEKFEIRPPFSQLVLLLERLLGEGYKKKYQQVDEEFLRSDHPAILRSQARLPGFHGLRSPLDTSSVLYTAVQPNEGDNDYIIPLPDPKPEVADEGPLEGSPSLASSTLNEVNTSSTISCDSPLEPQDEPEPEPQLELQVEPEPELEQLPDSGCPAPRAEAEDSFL
Method: Compounds were screened for inhibition of PDGFR beta phosphorylation in the HS27 human fibroblast cell line. Cells were seeded into a 96 well tissue culture plate, then incubated overnight in a 37° C., 5% CO2 incubator. The following day, cells were treated for one hour with test compound dilutions. After stimulation with PDGF-BB ligand for 5 minutes, cells were lysed and added to a sandwich ELISA plate from R&D Systems to detect levels of phospho PDGFR beta. A standard 4-parameter logistic model was fit to the inhibitor dose response curves, with the IC50 being defined as the concentration of inhibitor giving 50 percent of control (POC).

[2] = target: T2, cFMS (Homo sapiens, UniProt P07333); test: cFMS Cell-Based Assay (Example C); settings: averaged IC50; phospho-cFMS in THP-1 cells stimulated with 250 ng/mL recombinant human MCSF; read-out: cFMS Cell ELISA IC50
T2 construct: THP-1 cells (human acute monocytic leukemia cell line) were serum-starved for 4 hours; endogenous in cells; host or cells: THP-1 cells (human acute monocytic leukemia cell line)
T2 sequence (P07333 20-972): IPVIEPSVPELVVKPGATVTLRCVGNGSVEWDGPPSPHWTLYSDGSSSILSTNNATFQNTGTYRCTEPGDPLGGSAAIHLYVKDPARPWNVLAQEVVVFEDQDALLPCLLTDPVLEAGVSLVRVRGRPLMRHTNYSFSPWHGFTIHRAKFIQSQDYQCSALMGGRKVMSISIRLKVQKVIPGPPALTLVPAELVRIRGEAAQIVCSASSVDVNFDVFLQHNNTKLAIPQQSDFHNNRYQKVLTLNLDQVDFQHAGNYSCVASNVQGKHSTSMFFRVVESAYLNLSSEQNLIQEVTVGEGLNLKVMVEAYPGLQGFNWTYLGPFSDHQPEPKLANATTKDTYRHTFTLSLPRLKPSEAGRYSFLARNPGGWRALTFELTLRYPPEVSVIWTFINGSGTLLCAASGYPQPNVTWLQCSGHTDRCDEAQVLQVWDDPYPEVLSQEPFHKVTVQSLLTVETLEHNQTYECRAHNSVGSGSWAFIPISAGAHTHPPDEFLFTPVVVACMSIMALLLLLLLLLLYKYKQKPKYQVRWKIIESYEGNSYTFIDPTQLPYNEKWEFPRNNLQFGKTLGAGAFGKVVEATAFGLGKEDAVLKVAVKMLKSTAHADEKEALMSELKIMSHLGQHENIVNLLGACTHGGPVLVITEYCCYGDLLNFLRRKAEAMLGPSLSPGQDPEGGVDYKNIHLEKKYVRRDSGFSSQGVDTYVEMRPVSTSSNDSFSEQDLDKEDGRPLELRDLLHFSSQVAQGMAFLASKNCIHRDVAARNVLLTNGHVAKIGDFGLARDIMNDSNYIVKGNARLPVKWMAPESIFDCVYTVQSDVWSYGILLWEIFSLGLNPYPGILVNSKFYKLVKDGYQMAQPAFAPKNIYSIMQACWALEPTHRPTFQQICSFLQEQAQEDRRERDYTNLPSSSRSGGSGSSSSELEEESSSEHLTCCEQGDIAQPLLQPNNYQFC
Procedure, shortened: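 Phosphotyrosine on cFMS, captured from lysates and quantified by ELISA, reads receptor activation after 1 min of 250 ng/mL human MCSF. Beforehand, THP-1 cells were serum-starved for 4 h and exposed to compound for 1 h (9 points, 3-fold, typically up to 5,000 nM). IC50 from a 4-parameter logistic fit as 50 percent of control.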

[3] = target: T3, c-KIT (Homo sapiens, UniProt P10721); test: c-KIT Cell-Based Assay (Example D); settings: averaged IC50; phospho-c-KIT in M-07e cells stimulated with 150 ng/ml recombinant human SCF; read-out: cKIT Cell ELISA IC50
T3 construct: M-07e cells (human acute megakaryoblastic leukemia cell line) were serum-starved for 4 hours; endogenous in cells; host or cells: M-07e cells (human acute megakaryoblastic leukemia cell line)
T3 sequence (P10721 26-976): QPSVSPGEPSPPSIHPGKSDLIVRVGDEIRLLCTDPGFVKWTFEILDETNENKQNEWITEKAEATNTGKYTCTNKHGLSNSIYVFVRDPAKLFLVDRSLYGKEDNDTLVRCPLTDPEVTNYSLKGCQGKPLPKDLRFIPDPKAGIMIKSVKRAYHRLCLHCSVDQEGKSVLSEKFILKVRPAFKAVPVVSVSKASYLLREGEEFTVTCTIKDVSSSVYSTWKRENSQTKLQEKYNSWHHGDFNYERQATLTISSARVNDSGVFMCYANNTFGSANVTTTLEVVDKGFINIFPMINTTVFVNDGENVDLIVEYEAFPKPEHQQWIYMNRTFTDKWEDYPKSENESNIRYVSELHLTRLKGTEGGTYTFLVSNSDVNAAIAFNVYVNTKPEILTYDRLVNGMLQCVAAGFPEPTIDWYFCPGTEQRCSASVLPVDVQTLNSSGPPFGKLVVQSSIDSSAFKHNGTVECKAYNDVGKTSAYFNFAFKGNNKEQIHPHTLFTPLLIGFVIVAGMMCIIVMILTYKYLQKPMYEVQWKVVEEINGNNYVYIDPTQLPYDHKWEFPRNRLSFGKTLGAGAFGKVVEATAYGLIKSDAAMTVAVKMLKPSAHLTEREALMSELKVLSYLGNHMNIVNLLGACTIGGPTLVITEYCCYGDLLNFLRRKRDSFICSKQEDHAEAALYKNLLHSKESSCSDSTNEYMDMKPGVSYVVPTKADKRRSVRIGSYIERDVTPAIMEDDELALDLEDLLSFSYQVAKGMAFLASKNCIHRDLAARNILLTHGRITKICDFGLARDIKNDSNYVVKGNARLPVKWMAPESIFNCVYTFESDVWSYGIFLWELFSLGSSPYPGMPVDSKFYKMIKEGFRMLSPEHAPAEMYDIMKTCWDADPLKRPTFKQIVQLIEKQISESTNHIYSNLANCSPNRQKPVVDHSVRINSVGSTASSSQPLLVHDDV
Procedure, shortened: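 Phospho-c-KIT ELISA readout, calibrated with purified phospho-SCF R, gave IC50 (4-parameter fit, 50% of control). Before lysis, M-07e cells were starved 4 h, exposed 1 h to a 9-point 3-fold series (highest usually 5,000 nM), and stimulated with 150 ng/ml SCF for 4 min.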

[4] = target: T1, PDGFR beta; test: Phospho PDGFR LICOR Cell Assay (Example B); type: cell-based; settings: averaged IC50; PDGFR beta phosphorylation in HS27 human fibroblast cell line, PDGF-BB stimulation 10 minutes, normalized to total ERK
Procedure, shortened: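 Read-out is in-cell phospho-PDGFRβ/total-ERK infrared immunofluorescence in HS27 fibroblasts. Cells got 1 h compound exposure before a 10 min PDGF-BB challenge. A 4-parameter logistic fit gave IC50 as the concentration yielding 50 percent of control.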

Row | SMILES | IC50 [1] | IC50 [2] | IC50 [3] | IC50 [4]
1 | Cc1nn(Cc2cccc(C(C)C)n2)c2cccc(NC(=O)c3cnc4cc(OCCN5C[C@@H](C)N(C)[C@@H](C)C5)ccn34)c12 [Example 7, N-(1-((6-Isopropylpyridin-2-yl)methyl)-3-methyl-1H-indazol-4-yl)-7-(2-((3S,5R)-3,4,5-trimethylpiperazin-1-yl)ethoxy)imidazo[1,2-a]pyridine-3-carboxamide] | 40.9 nM | 20.8 nM | 43.7 nM | 
2 | CC(C)N1CCN(CCOc2ccn3c(C(=O)Nc4cccc5c4c(Cl)nn5Cc4cccc(C5CC5)n4)cnc3c2)CC1 [Example 21, N-(3-chloro-1-((6-cyclopropylpyridin-2-yl)methyl)-1H-indazol-4-yl)-7-(2-(4-isopropylpiperazin-1-yl)ethoxy)imidazo[1,2-a]pyridine-3-carboxamide] | 124 nM | 12 nM | 46.6 nM | 
3 | CC(C)N1CCN(CCOc2ccn3c(C(=O)Nc4cccc5c4c(F)nn5Cc4cccc(C5CC5)n4)cnc3c2)CC1 [Example 22, N-(1-((6-cyclopropylpyridin-2-yl)methyl)-3-fluoro-1H-indazol-4-yl)-7-(2-(4-isopropylpiperazin-1-yl)ethoxy)imidazo[1,2-a]pyridine-3-carboxamide] | 17.6 nM | 6.7 nM | 5.2 nM | 
4 | C[C@H]1CN(CCOc2ccn3c(C(=O)Nc4cccc5c4c(Cl)nn5Cc4cccc(C5CC5)n4)cnc3c2)CCN1C [Example 23, (S)—N-(3-chloro-1-((6-cyclopropylpyridin-2-yl)methyl)-1H-indazol-4-yl)-7-(2-(3,4-dimethylpiperazin-1-yl)ethoxy)imidazo[1,2-a]pyridine-3-carboxamide] | 239 nM | 21.1 nM | 65.7 nM | 
5 | C[C@H]1CN(CCOc2ccn3c(C(=O)Nc4cccc5c4c(F)nn5Cc4cccc(C5CC5)n4)cnc3c2)CCN1C [Example 24, (S)—N-(1-((6-cyclopropylpyridin-2-yl)methyl)-3-fluoro-1H-indazol-4-yl)-7-(2-(3,4-dimethylpiperazin-1-yl)ethoxy)imidazo[1,2-a]pyridine-3-carboxamide] | 14.1 nM | 6.8 nM | 6.4 nM | 
6 | Cc1nn(Cc2cccc(C(C)(C)C)n2)c2cccc(NC(=O)c3cnc4cc(OCCN5CCN(C)[C@@H](C)C5)ccn34)c12 [Example 31, (S)—N-(1-((6-tert-butylpyridin-2-yl)methyl)-3-methyl-1H-indazol-4-yl)-7-(2-(3,4-dimethylpiperazin-1-yl)ethoxy)imidazo[1,2-a]pyridine-3-carboxamide] | 335 nM | 102 nM | 67.1 nM | 
7 | Cc1nn(Cc2cccc(C3CCCC3)n2)c2cccc(NC(=O)c3cnc4cc(OCCN5CCN(C)[C@@H](C)C5)ccn34)c12 [Example 33, (S)—N-(1-((6-cyclopentylpyridin-2-yl)methyl)-3-methyl-1H-indazol-4-yl)-7-(2-(3,4-dimethylpiperazin-1-yl)ethoxy)imidazo[1,2-a]pyridine-3-carboxamide] | 65.8 nM | 41.5 nM | 22.6 nM | 
8 | Cc1ncc(Cn2ncc3c(NC(=O)c4cnc5cc(OCCN6CCN(C)CC6)ccn45)cccc32)s1 [Example 149, 7-(2-(4-methylpiperazin-1-yl)ethoxy)-N-(1-((2-methylthiazol-5-yl)methyl)-1H-indazol-4-yl)imidazo[1,2-a]pyridine-3-carboxamide] |  | 2.2 nM | 4.8 nM | 1 nM
9 | COCCOc1ccn2c(C(=O)Nc3cccc4c3cnn4CCc3ccccc3)cnc2c1 [Example 151, 7-(2-methoxyethoxy)-N-(1-phenethyl-1H-indazol-4-yl)imidazo[1,2-a]pyridine-3-carboxamide] |  | 44.8 nM | 37.3 nM | 9 nM
10 | N#Cc1ccn2c(C(=O)Nc3cccc4c3cnn4Cc3ccccc3)cnc2c1 [Example 152, N-(1-benzyl-1H-indazol-4-yl)-7-cyanoimidazo[1,2-a]pyridine-3-carboxamide] |  | 117 nM | 165 nM | 296 nM
11 | COCCOc1ccn2c(C(=O)Nc3cccc4c3cnn4Cc3ccccc3)cnc2c1 [Example 156, N-(1-benzyl-1H-indazol-4-yl)-7-(2-methoxyethoxy)imidazo[1,2-a]pyridine-3-carboxamide] |  | 5.7 nM | 12.5 nM | 5.7 nM

Further compounds by falling IC50 [2], results first:

Row | IC50 [1] | IC50 [2] | IC50 [3] | IC50 [4] | SMILES
12 |  | 535 nM | 2100 nM | 2400 nM | O=C(Nc1cccc2c1cnn2Cc1ccccc1)c1cnc2ccc(C(O)CO)cn12 (stereo not drawn) [Example 158, N-(1-benzyl-1H-indazol-4-yl)-6-(1,2-dihydroxyethyl)imidazo[1,2-a]pyridine-3-carboxamide]
13 |  | 143 nM | 150 nM | 186 nM | N#Cc1ccc2ncc(C(=O)Nc3cccc4c3cnn4Cc3ccccc3)n2c1 [Example 154, N-(1-benzyl-1H-indazol-4-yl)-6-cyanoimidazo[1,2-a]pyridine-3-carboxamide]
14 |  | 132 nM | 868 nM | 714 nM | NC(=O)c1ccc2ncc(C(=O)Nc3cccc4c3cnn4Cc3ccccc3)n2c1 [Example 160, N3-(1-benzyl-1H-indazol-4-yl)imidazo[1,2-a]pyridine-3,6-dicarboxamide]
15 |  | 93.1 nM | 189 nM | 994 nM | CC(c1ccn2c(C(=O)Nc3cccc4c3cnn4Cc3ccccc3)cnc2c1)N1CCOCC1 (stereo not drawn) [Example 148, N-(1-benzyl-1H-indazol-4-yl)-7-(1-morpholinoethyl)imidazo[1,2-a]pyridine-3-carboxamide]
16 |  | 72.6 nM | 93.1 nM | 399 nM | CC(O)c1ccn2c(C(=O)Nc3cccc4c3cnn4Cc3ccccc3)cnc2c1 (stereo not drawn) [Example 147, N-(1-benzyl-1H-indazol-4-yl)-7-(1-hydroxyethyl)imidazo[1,2-a]pyridine-3-carboxamide]
17 |  | 26.6 nM | 9.8 nM | 64.3 nM | COc1ccc2ncc(C(=O)Nc3cccc4c3cnn4Cc3ccccc3)n2c1 [Example 159, N-(1-benzyl-1H-indazol-4-yl)-6-methoxyimidazo[1,2-a]pyridine-3-carboxamide]
18 | 66.5 nM | 24.2 nM | 42.4 nM |  | Cc1nn(Cc2cccc(C3CCC3)n2)c2cccc(NC(=O)c3cnc4cc(OCCN5CCN(C)[C@@H](C)C5)ccn34)c12 [Example 32, (S)—N-(1-((6-cyclobutylpyridin-2-yl)methyl)-3-methyl-1H-indazol-4-yl)-7-(2-(3,4-dimethylpiperazin-1-yl)ethoxy)imidazo[1,2-a]pyridine-3-carboxamide]
19 | 431 nM | 19.4 nM | 924 nM |  | Cc1cccc(Cn2nc(C)c3c(NC(=O)c4cnc5cc(OCCN6CCN(C)[C@@H](C)C6)ccn45)cccc32)n1 [Example 35, (S)-7-(2-(3,4-dimethylpiperazin-1-yl)ethoxy)-N-(3-methyl-1-((6-methylpyridin-2-yl)methyl)-1H-indazol-4-yl)imidazo[1,2-a]pyridine-3-carboxamide]
20 |  | 14.8 nM | 9.5 nM | 5 nM | CN1CCN(CCOc2ccn3c(C(=O)Nc4cccc5c4cnn5Cc4ccccc4)cnc3c2)CC1 [Example 153, N-(1-benzyl-1H-indazol-4-yl)-7-(2-(4-methylpiperazin-1-yl)ethoxy)imidazo[1,2-a]pyridine-3-carboxamide]
21 | 55.9 nM | 10.8 nM | 76.1 nM |  | COCCN1CCN(CCOc2ccn3c(C(=O)Nc4cccc5c4c(C)nn5Cc4cccc(C5CC5)n4)cnc3c2)CC1 [Example 20, N-(1-((6-cyclopropylpyridin-2-yl)methyl)-3-methyl-1H-indazol-4-yl)-7-(2-(4-(2-methoxyethyl)piperazin-1-yl)ethoxy)imidazo[1,2-a]pyridine-3-carboxamide]
22 |  | 4.6 nM | 14.4 nM | 1.7 nM | Cc1cccc(Cn2ncc3c(NC(=O)c4cnc5cc(OCCN6CCN(C)CC6)ccn45)cccc32)n1 [Example 150, 7-(2-(4-methylpiperazin-1-yl)ethoxy)-N-(1-((6-methylpyridin-2-yl)methyl)-1H-indazol-4-yl)imidazo[1,2-a]pyridine-3-carboxamide]
